Source: PubChem BioAssay (NCI)
Values joined by “and” are separate entries in the source; they are usually repeats but may differ in a detail not shown here. Equal values may be shown once.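 Following 48 hours of exposure in 96-well plates, responses at five concentrations were used to interpolate endpoints linearly. Abbreviation: GI50, concentration required for 50% inhibition of growth. TGI: total growth inhibition.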

What was measured:
Assay in all cases: NCI-60 cell line screen, 48 h
UACC-257 melanoma = tested on: UACC-257 melanoma
NCI-H522 lung = tested on: NCI-H522 lung
HOP-92 NSCLC = tested on: HOP-92 NSCLC
OVCAR-4 ovarian = tested on: OVCAR-4 ovarian
HCT-15 colon = tested on: HCT-15 colon
HOP-62 NSCLC = tested on: HOP-62 NSCLC
TK-10 renal = tested on: TK-10 renal
786-0 renal = tested on: 786-0 renal
RXF 393 renal = tested on: RXF 393 renal
SF-295 CNS = tested on: SF-295 CNS

| SMILES | GI50 (UACC-257 melanoma) | TGI (UACC-257 melanoma) | GI50 (NCI-H522 lung) | TGI (NCI-H522 lung) | GI50 (HOP-92 NSCLC) | TGI (HOP-92 NSCLC) | GI50 (OVCAR-4 ovarian) | TGI (OVCAR-4 ovarian) | GI50 (HCT-15 colon) | TGI (HCT-15 colon) | GI50 (HOP-62 NSCLC) | TGI (HOP-62 NSCLC) | GI50 (TK-10 renal) | TGI (TK-10 renal) | GI50 (786-0 renal) | TGI (786-0 renal) | GI50 (RXF 393 renal) | TGI (RXF 393 renal) | GI50 (SF-295 CNS) | TGI (SF-295 CNS) |
| --- | --- | --- | --- | --- | --- | --- | --- | --- | --- | --- | --- | --- | --- | --- | --- | --- | --- | --- | --- | --- |
| C[C@@H]1N=C(c2ccc(Br)cc2)Nc2nc3ccccn3c2C1=O | 35.2 µM | > 100 µM | 3.24 µM | 18.4 µM | 1.16 µM | 23 µM | 17.9 µM | > 100 µM | 3.64 µM | > 100 µM | 5.75 µM | > 100 µM | 21 µM | > 100 µM | 23.8 µM | > 100 µM | 10.2 µM | 51.7 µM | – | – |
| O=c1[nH]ccc2nc(N3CCC(O)CC3)nc(Nc3cccc(C(F)(F)F)c3)c12 | 4.24 µM | 13 µM | 2.36 µM | 10.1 µM | > 100 µM | > 100 µM | 1.73 µM | 36.4 µM | 0.543 µM | 31.6 µM | 4.4 µM | 18.8 µM | 5.98 µM | 44.9 µM | 2.06 µM | > 100 µM | 1.45 µM | 23.2 µM | 2.94 µM | 7.85 µM |
| Cn1nc(-c2ccccc2)nc1[N+](=O)[O-] | – | > 10 µM | – | > 10 µM | – | > 10 µM | – | > 10 µM | – | > 10 µM | – | > 10 µM | – | > 10 µM | – | > 10 µM | – | > 10 µM | – | > 10 µM |
| CC(=O)Nc1c(C)ccc2c1C(=O)c1ccccc1C2=O | – | > 100 µM | – | > 100 µM | – | > 100 µM | – | > 100 µM | – | > 100 µM | – | > 100 µM | – | > 100 µM | – | > 100 µM | – | > 100 µM | – | > 100 µM |
| CC(=O)/C(=C\C1=CCCO1)C(=O)Nc1ccccc1C | – | > 100 µM | – | > 100 µM | – | > 100 µM | – | > 100 µM | – | > 100 µM | – | > 100 µM | – | > 100 µM | – | > 100 µM | – | > 100 µM | – | > 100 µM |
| c1cc(OCCN2CCCCC2)ccc1CNc1ccc2nc(CCC3CCCCC3)[nH]c2c1 | 1.91 µM | 3.89 µM | 1.98 µM | 3.94 µM | 0.565 µM | 2.45 µM | 2.8 µM | 12.3 µM | 1.58 µM | 3.89 µM | 1.79 µM | 3.4 µM | 2.9 µM | 8.26 µM | 1.65 µM | 3.55 µM | 1.5 µM | 3.49 µM | 1.98 µM | 3.88 µM |
| COc1ccc2c(CN3CCC[C@H]3C(=O)O)cc3cc4c(cc3c2c1)OCO4 | 12.6 µM | 45.8 µM | 11.1 µM | 95.2 µM | 17.4 µM | 82.5 µM | 19.2 µM | 61.4 µM | 19.1 µM | > 100 µM | 19.4 µM | 86.1 µM | 14.7 µM | 67.4 µM | 16.2 µM | > 100 µM | 6.81 µM | 23.2 µM | 8.88 µM | 39.4 µM |
| CN(C)C1CCN(C(=O)c2ccc(NC(=O)Nc3ccc(-c4nc(N5CCOCC5)nc(N5CCOCC5)n4)cc3)cc2)CC1 | 0.0289 µM and 0.0633 µM and 0.0266 µM | 0.151 µM and 0.386 µM and 0.243 µM | 0.0102 µM and 0.0103 µM and 0.0246 µM | 0.0758 µM and 0.207 µM and 0.371 µM | < 0.01 µM and 0.00627 µM and 0.0138 µM | 0.0288 µM and 0.0544 µM and 0.116 µM | < 0.01 µM and 0.00776 µM and 0.0127 µM | – | 3.08 µM and 2.19 µM | > 100 µM | 0.022 µM and 0.102 µM and 0.0324 µM | 0.382 µM and 1.9 µM and 1.1 µM | 0.363 µM and 0.389 µM and 0.122 µM | 1.84 µM and 1.56 µM and 2.5 µM | 0.237 µM and 0.136 µM and 0.571 µM | 2.82 µM and 2.5 µM and 8.53 µM | 0.023 µM and 0.0271 µM and 0.21 µM | – | 0.0732 µM and 0.0711 µM and 0.639 µM | 0.577 µM and 0.502 µM and 3.52 µM |
| C=C[C@H]1CCC/C=C/[C@@H]2C[C@H](O)C[C@H]2[C@H](O)/C=C/C(=O)O1 | 0.0864 µM | > 100 µM | 0.0673 µM | 0.356 µM | 0.0289 µM | 2.99 µM | 0.0303 µM | > 100 µM | 0.0325 µM | > 34.7 µM | 0.0488 µM | – | 0.0393 µM | 0.5 µM | 0.0184 µM | 0.0377 µM | < 0.0137 µM | < 0.0193 µM | 0.0537 µM | > 100 µM |
| COc1ccc(C(=O)OC2C=COC(C)C2OC(=O)c2ccc(OC)cc2)cc1 (stereo not given) | – | > 72.4 µM | – | 30.6 µM | – | 37.1 µM | – | > 63.2 µM | – | 33 µM | – | > 100 µM | – | > 100 µM | – | > 86.6 µM | – | 20.9 µM | – | > 100 µM |
| COc1cc2c(cc1OCCCCCCN1CCN(c3ncnc4ccccc34)CC1)N=CC1CCCN1C2=O (stereo not given) | 0.237 µM | 14.1 µM | < 0.0145 µM | 0.135 µM | 0.0456 µM | 0.408 µM | 0.13 µM | 2.05 µM | 0.493 µM | 2.39 µM | 0.29 µM | 3.82 µM | 0.155 µM | 1.88 µM | 0.141 µM | 0.649 µM | 0.146 µM | 0.325 µM | 0.0508 µM | 1.03 µM |
| COc1cc2c(Oc3ccc4[nH]c(C)cc4c3F)ccnc2cc1OCC1(N)CC1 | 1.67 µM | 3.63 µM | 1.27 µM | 3.46 µM | 1.03 µM | 7.11 µM | 4.22 µM | > 100 µM | 0.854 µM | 13.5 µM | 1.59 µM | 35.6 µM | 7.89 µM | 26.2 µM | 1.02 µM | 3.46 µM | 0.671 µM | 4.22 µM | 1.07 µM | 3.92 µM |
| CCOC(=O)C1=C(Nc2ccc(Cl)cc2Cl)OC/C1=N\NS(=O)(=O)c1ccc(C)cc1 | – | > 100 µM | – | > 100 µM | – | > 100 µM | – | > 100 µM | – | > 100 µM | – | > 100 µM | – | > 100 µM | – | > 100 µM | – | > 100 µM | – | > 100 µM |
| C=CCC(C(=O)O)c1ccccc1 (stereo not given) | – | > 100 µM | – | > 100 µM | – | > 100 µM | – | > 100 µM | – | > 100 µM | – | > 100 µM | – | > 100 µM | – | > 100 µM | – | > 100 µM | – | > 100 µM |
